Results published in US4877776A, “K-252 compounds” (Kyowa Hakko Kogyo Co., Ltd., priority 1987, dated 1989).
Converted amounts (≈) assume the structure as drawn. Like-named read-outs stand apart in the source and are kept apart here.

Experiments:
[1] = test system: MCF7 cells (human breast cancer cell MCF7); assay: MCF7 cell growth inhibition test; assay type: cell-based; details: read-out: IC50, MCF7 cell growth inhibitory activity
Experimental: (§1) Compound (I) obtained by the present invention was examined for C-kinase inhibitory activity and cell growth inhibitory activity by the following methods.
(§2) Cell growth inhibition tests:
(1) MCF7 cell growth inhibition test:
(§3) MCF7 cells (4.5×10^4 cells/ml) pepared in RPMI 1640 medium containing 10% fetal calf serum, 10 μg/ml insulin and 10^-8 M estradiol are put into wells of a 96-well microtiter plate in the amount of 0.1 ml per each well. After incubation at 37° C. overnight in CO2 -incubator, 0.05 ml of a test sample appropriately diluted with the culture medium is added to each well. The cells are further cultured in CO2 -incubator, and then the culture supernatant is removed and the wells are washed once with PBS(-). Thereafter, 0.1 ml of fresh medium is added to each well, followed by culturing at 37° C. for 72 hours in CO2 -incubator. After the culture supernatant is removed, 0.1 ml of the culture medium containing 0.02% Neutral Red is added to each well, followed by culturing at 37° C. for one hour in CO2 -incubator, whereby the cells are stained. Then, the culture supernatant is removed and the cells are washed once with physiological saline. The pigment is extracted with 0.001N hydrochloric acid/30% ethanol and absorption is measured at 550 nm with a microplate reader. By comparing the absorption of intact cells with those of the cells treated with a test compound at known concentrations, the concentration of the test compound at which growth of the cells is inhibited 50% is calculated as IC50.

[2] = test system: HeLaS3 cells (human uterine cervical cancer HeLa cells); assay: HeLaS3 cell growth inhibition test; assay type: cell-based; details: read-out: IC50, HeLaS3 cell growth inhibitory activity
Experimental: as §1, §2, §3
(2) HaLaS3 cell growth inhibition test:
HeLaS3 cells (3×10^4 cells/ml) prepared in MEM medium containing 10% fetal calf serum and 2 mM glutamine are put into wells of a 96-well microtiter plate in the amount of 0.1 ml per each well.
Thereafter, the test is carried out in the same manner as in (1).

[3] = target: C-kinase (protein kinase C); assay: C-Kinase inhibitory activity test; assay type: biochemical; details: concentration at which enzyme activity was inhibited 50%
Experimental: as §1
C-Kinase inhibitory activity test:
C-Kinase inhibitory activity of representative Compounds (I) was measured in accordance with the method of Y. Nishizuka, et al. [J. Biol. Chem., 257, 13341 (1982)]. The test was carried out on test compounds at varied concentrations, and the concentration at which the enzyme activity was inhibited 50% (IC50) was determined.

[4] = test system: COLO320DM cells (human colon adenocarcinoma cell COLO320DM); assay: COLO320DM cell growth inhibition test; assay type: cell-based; details: COLO 320DM, read-out: IC50, COLO320DM cell growth inhibitory activity
Experimental: as §1, §2
(3) COLO320DM cell growth inhibition test:
COLO320DM cells (10^5 cells/ml) prepared in RPMI 1640 medium containing 10% fetal calf serum, 100 U/ml penicillin and 100 μg/ml streptomycin are put into wells of a 96-well microtiter plate in the amount of 0.1 ml per each well. Thereafter, the test is carried out in the same manner as in (1) except that the cells are counted with a microcell counter. By comparing the number of intact cells with those of the cells treated with a test compound at known concentrations, the concentration of the test compound at which growth of the cells is inhibited 50% is calculated as IC50.

[5] = test system: histamine release; details: in words, from other filings; cited from earlier work
[6] = in words, from other filing; cited from earlier work
[7] = test system: C-kinase; details: in words, cited from earlier work; for inhibitory activity against C-kinase: from literature or other filings; for specificity of C-kinase inhibition: from literature
[8] = in words, from literature; cited from earlier work
[9] = HeLa S3, HeLaS3, Neutral Red, 72 hours
[10] = COLO320DM, cells counted with a microcell counter, 72 hours

SMILES | IC50, C-Kinase inhibitory activity [3] | inhibitory activity against C-kinase [7] | specificity of C-kinase inhibition [7] | also measured
COC(=O)C1(O)CC2OC1(C)n1c3ccccc3c3c4c(c5c6ccccc6n2c5c31)C(=O)NC4O (centres unmarked) [Compound 5] | 1.2 µg/mL (≈ 2.48 µM) |  |  | IC50 ([1]; MCF7, Neutral Red, 72 hours): 0.8 µg/mL (≈ 1.65 µM); IC50 [2, 9]: 1.53 µg/mL (≈ 3.16 µM); IC50 [4, 10]: 2.55 µg/mL (≈ 5.27 µM)
CCSC1NC(=O)c2c1c1c3ccccc3n3c1c1c2c2ccccc2n1C1CC(O)(CO)C3(C)O1 (centres unmarked) [Compound 7] | 0.18 µg/mL (≈ 0.36 µM) |  |  | IC50 ([1]; MCF7, Neutral Red, 72 hours): 5.08 µg/mL (≈ 10.2 µM); IC50 [2, 9]: 1.43 µg/mL (≈ 2.86 µM); IC50 [4, 10]: 1 µg/mL (≈ 2 µM)
COC(=O)C1(O)CC2OC1(C)n1c3ccccc3c3c4c(c5c6ccccc6n2c5c31)C(=O)NC4 (centres unmarked) [Compound K-252] | 0.016 µg/mL (≈ 0.0342 µM) |  |  | IC50 ([1]; MCF7, 72 h): 0.51 µg/mL (≈ 1.09 µM); activity to inhibit histamine release [5]: activity to inhibit histamine release; IC50 ([2]; HeLa S3, 72 h): 0.2 µg/mL (≈ 0.428 µM); anti-allergic activity [6]: anti-allergic activity; IC50 ([4]; 72 h): 0.27 µg/mL (≈ 0.578 µM)
NCCCCCCNS(=O)(=O)c1cccc2c(Cl)cccc12 [Compound W-7, N-(6-aminohexyl)-5-chloro-1-naphthalenesulfonamide] |  | low inhibitory activity against C-kinase | low specificity | 
CC12OC(CC1(O)C(=O)O)n1c3ccccc3c3c4c(c5c6ccccc6n2c5c31)CNC4=O (centres unmarked) [KT-5556] |  |  |  | activity to inhibit histamine release [5]: activity to inhibit histamine release
CN[C@@H]1C[C@H]2O[C@@](C)([C@@H]1OC)n1c3ccccc3c3c4c(c5c6ccccc6n2c5c31)C(=O)NC4 [Staurosporine] |  |  |  | antibacterial activity [8]: antibacterial activity
CN(C)CCCN1c2ccccc2Sc2ccc(Cl)cc21 [chlorpromazine] |  | low inhibitory activity against C-kinase | low specificity | 
ClCCN(Cc1ccccc1)Cc1ccccc1 [dibenamine] |  | low inhibitory activity against C-kinase | low specificity | 
CCCCNc1ccc(C(=O)OCCN(C)C)cc1 [tetracaine] |  | low inhibitory activity against C-kinase | low specificity | 
CN1CCN(CCCN2c3ccccc3Sc3ccc(C(F)(F)F)cc32)CC1 [trifluoperazine] |  | low inhibitory activity against C-kinase | low specificity | 
